# In PMC7064328 (Environmental Health Perspectives, 2020):
# Key:
# maternal liver [1] = test: Maternal liver histopathology (H&E); assay type: in vivo, mouse (CD-1); conditions: for CA, any severity: % / CA, any severity: N / CA, marked: % / CA, marked: N / CA, minimal to mild: % / CA, minimal to mild: N / CA, moderate: % / CA, moderate: N / Focal regions of classic necrosis: % / Focal regions of classic necrosis: N / Increase in cell death: % / Increase in cell death: N / Increase in mitotic figures: % / Increase in mitotic figures: N / Vacuolation, any severity: % / Vacuolation, any severity: N / Vacuolation, mild: % / Vacuolation, mild: N / Vacuolation, minimal: % / Vacuolation, minimal: N / Vacuolation, moderate: % / Vacuolation, moderate: N: maternal liver
# Description: From each uterus, first, viable embryos and their matched placentas were collected in succession within a horn and immediately snap frozen ( n=2–5 per litter ), and subsequent embryos were collected for growth measurements ( n=2–11 per litter ). Additional placentas were collected and placed in 4% paraformaldehyde (PFA) for histological analysis (Block 2 only). Amniotic fluid was collected by needle aspiration from litters euthanized at E11.5 and snap frozen in liquid nitrogen. Embryo livers were collected from litters euthanized at E17.5 and snap frozen in liquid nitrogen. Dam livers were weighed, a portion of the left lateral lobe was placed in 4% PFA for histology, and another portion of the same lobe was snap frozen in liquid nitrogen. A third liver section was obtained from Block 2 dams and fixed in McDowell and Trump’s fixative for electron microscopy (EM). Gross lesions were collected when observed and placed in 4% PFA for histology. Dam kidneys were removed, a cross section was prepared from the right kidney, a longitudinal section was prepared from the left kidney, and both sections were fixed in 4% PFA for histological analysis.
# Dam livers, kidneys, and placentas were trimmed and embedded by the NIEHS Mouse Embryo Phenotyping Core. Tissues collected at necropsy were fixed in 4% PFA for 72 h and paraffin embedded, and 5-μm sections were prepared and stained with hematoxylin and eosin (H&E). Pathology was evaluated and a pathology review conducted by S.A.E. Diplomate American College of Veterinary Pathologists (DACVP). Pathology reviews were conducted as an informed approach analysis [e.g., nonblinded analysis; see Sills et al. ([2019])]. Select tissue slides were scanned using the AT2 Scanner (Aperio). Images were then captured for publication using the ImageScope software; version 12.3.0.5056 (Aperio). Serum and urine obtained from dams in Block 2 were analyzed using the AU480 clinical chemistry analyzer (Beckman Coulter Inc.). Reagents and calibration standards used to measure alkaline phosphatase (ALP), alanine aminotransferase (ALT), aspartate aminotransferase (AST), blood urea nitrogen (BUN), serum creatinine, urine creatinine, glucose (Glu), total protein (TP), triglyceride (Trig), high-density lipoprotein (HDL), cholesterol (Chol), and albumin (ALB) were purchased from Beckman Coulter Inc. Reagents for sorbitol dehydrogenase (SDH), total bile acid (TBA), and micro-TP were purchased from Sekisui Diagnostics. The reagent used to measure low-density lipoprotein (LDL) was purchased form Diazyme Laboratories.
# maternal liver [2] = test: Transmission electron microscopy of dam liver; assay type: in vivo, mouse (CD-1); conditions: E17.5
# Description: Block 2 dam liver portions stored in McDowell and Trump’s fixative ([McDowell and Trump 1976]) were processed using a Leica EM TP processor. Briefly, samples were rinsed with buffer, postfixed in 1% osmium tetroxide in 0.1-M phosphate buffer, rinsed in distilled water, dehydrated, and embedded in Ply/Bed® 812 (Polysciences, Inc.) epoxide resin. Blocks were trimmed, and semithin sections ( ∼0.5μm ) were stained with 1% toluidine blue (Poly-scientific R&D Corp.) O in 1% sodium borate to ascertain areas of interest. Ultrathin sections ( […] ) were cut from areas of interest and placed on 200-mesh copper grids and stained with uranyl acetate and lead citrate, and digital images were captured using an Orius® SC1000 side mount camera (Gatan) attached to a Techani T12 transmission electron microscope (TEM) (FEI Company). In general, peroxisomes were smaller than mitochondria and round with a dark, electron-dense, granular matrix and surrounded by a single membrane. […] Samples were analyzed by R.D.K., Ph.D.
smiles,measurement,setting,value
"N.O=C(O)C(F)(OC(F)(F)C(F)(F)C(F)(F)F)C(F)(F)F (stereo not shown) [GenX, ammonium 2,3,3,3-tetrafluoro-2-(heptafluoropropoxy)propanoate]",Incidence of livers with adverse outcomes including cytoplasmic alteration,"maternal liver [1]; all dose groups, E11.5 and E17.5",100%
same,"CA, any severity: %","maternal liver [1]; E11.5, 2 mg/kg/d",100%
same,"CA, any severity: N","maternal liver [1]; E11.5, 2 mg/kg/d",5
same,"CA, marked: %","maternal liver [1]; E11.5, 2 mg/kg/d",0%
same,"CA, marked: N","maternal liver [1]; E11.5, 2 mg/kg/d",0
same,"CA, minimal to mild: %","maternal liver [1]; E11.5, 2 mg/kg/d",100%
same,"CA, minimal to mild: N","maternal liver [1]; E11.5, 2 mg/kg/d",5
same,"CA, moderate: %","maternal liver [1]; E11.5, 2 mg/kg/d",0%
same,"CA, moderate: N","maternal liver [1]; E11.5, 2 mg/kg/d",0
same,Focal regions of classic necrosis: %,"maternal liver [1]; E11.5, 2 mg/kg/d",0%
same,Focal regions of classic necrosis: N,"maternal liver [1]; E11.5, 2 mg/kg/d",0
same,Increase in cell death: %,"maternal liver [1]; E11.5, 2 mg/kg/d",80%
same,Increase in cell death: N,"maternal liver [1]; E11.5, 2 mg/kg/d",4
same,Increase in mitotic figures: %,"maternal liver [1]; E11.5, 2 mg/kg/d",60%
same,Increase in mitotic figures: N,"maternal liver [1]; E11.5, 2 mg/kg/d",3
same,"Vacuolation, any severity: %","maternal liver [1]; E11.5, 2 mg/kg/d",0%
same,"Vacuolation, any severity: N","maternal liver [1]; E11.5, 2 mg/kg/d",0
same,"Vacuolation, mild: %","maternal liver [1]; E11.5, 2 mg/kg/d",0%
same,"Vacuolation, mild: N","maternal liver [1]; E11.5, 2 mg/kg/d",0
same,"Vacuolation, minimal: %","maternal liver [1]; E11.5, 2 mg/kg/d",0%
same,"Vacuolation, minimal: N","maternal liver [1]; E11.5, 2 mg/kg/d",0
same,"Vacuolation, moderate: %","maternal liver [1]; E11.5, 2 mg/kg/d",0%
same,"Vacuolation, moderate: N","maternal liver [1]; E11.5, 2 mg/kg/d",0
same,"CA, any severity: %","maternal liver [1]; E11.5, 10 mg/kg/d",100%
same,"CA, any severity: N","maternal liver [1]; E11.5, 10 mg/kg/d",5
same,"CA, marked: %","maternal liver [1]; E11.5, 10 mg/kg/d",60%
same,"CA, marked: N","maternal liver [1]; E11.5, 10 mg/kg/d",3
same,"CA, minimal to mild: %","maternal liver [1]; E11.5, 10 mg/kg/d",0%
same,"CA, minimal to mild: N","maternal liver [1]; E11.5, 10 mg/kg/d",0
same,"CA, moderate: %","maternal liver [1]; E11.5, 10 mg/kg/d",40%
same,"CA, moderate: N","maternal liver [1]; E11.5, 10 mg/kg/d",2
same,Focal regions of classic necrosis: %,"maternal liver [1]; E11.5, 10 mg/kg/d",20%
same,Focal regions of classic necrosis: N,"maternal liver [1]; E11.5, 10 mg/kg/d",1
same,Increase in cell death: %,"maternal liver [1]; E11.5, 10 mg/kg/d",60%
same,Increase in cell death: N,"maternal liver [1]; E11.5, 10 mg/kg/d",3
same,Increase in mitotic figures: %,"maternal liver [1]; E11.5, 10 mg/kg/d",80%
same,Increase in mitotic figures: N,"maternal liver [1]; E11.5, 10 mg/kg/d",4
same,"Vacuolation, any severity: %","maternal liver [1]; E11.5, 10 mg/kg/d",100%
same,"Vacuolation, any severity: N","maternal liver [1]; E11.5, 10 mg/kg/d",5
same,"Vacuolation, mild: %","maternal liver [1]; E11.5, 10 mg/kg/d",0%
same,"Vacuolation, mild: N","maternal liver [1]; E11.5, 10 mg/kg/d",0
same,"Vacuolation, minimal: %","maternal liver [1]; E11.5, 10 mg/kg/d",100%
same,"Vacuolation, minimal: N","maternal liver [1]; E11.5, 10 mg/kg/d",5
same,"Vacuolation, moderate: %","maternal liver [1]; E11.5, 10 mg/kg/d",0%
same,"Vacuolation, moderate: N","maternal liver [1]; E11.5, 10 mg/kg/d",0
same,"CA, any severity: %","maternal liver [1]; E17.5, 2 mg/kg/d",100%
same,"CA, any severity: N","maternal liver [1]; E17.5, 2 mg/kg/d",5
same,"CA, marked: %","maternal liver [1]; E17.5, 2 mg/kg/d",0%
same,"CA, marked: N","maternal liver [1]; E17.5, 2 mg/kg/d",0
same,"CA, minimal to mild: %","maternal liver [1]; E17.5, 2 mg/kg/d",40%
same,"CA, minimal to mild: N","maternal liver [1]; E17.5, 2 mg/kg/d",2
same,"CA, moderate: %","maternal liver [1]; E17.5, 2 mg/kg/d",60%
same,"CA, moderate: N","maternal liver [1]; E17.5, 2 mg/kg/d",3
same,Focal regions of classic necrosis: %,"maternal liver [1]; E17.5, 2 mg/kg/d",20%
same,Focal regions of classic necrosis: N,"maternal liver [1]; E17.5, 2 mg/kg/d",1
same,Increase in cell death: %,"maternal liver [1]; E17.5, 2 mg/kg/d",0%
same,Increase in cell death: N,"maternal liver [1]; E17.5, 2 mg/kg/d",0
same,Increase in mitotic figures: %,"maternal liver [1]; E17.5, 2 mg/kg/d",0%
same,Increase in mitotic figures: N,"maternal liver [1]; E17.5, 2 mg/kg/d",0
same,"Vacuolation, any severity: %","maternal liver [1]; E17.5, 2 mg/kg/d",0%
same,"Vacuolation, any severity: N","maternal liver [1]; E17.5, 2 mg/kg/d",0
same,"Vacuolation, mild: %","maternal liver [1]; E17.5, 2 mg/kg/d",0%
same,"Vacuolation, mild: N","maternal liver [1]; E17.5, 2 mg/kg/d",0
same,"Vacuolation, minimal: %","maternal liver [1]; E17.5, 2 mg/kg/d",0%
same,"Vacuolation, minimal: N","maternal liver [1]; E17.5, 2 mg/kg/d",0
same,"Vacuolation, moderate: %","maternal liver [1]; E17.5, 2 mg/kg/d",0%
same,"Vacuolation, moderate: N","maternal liver [1]; E17.5, 2 mg/kg/d",0
same,"CA, any severity: %","maternal liver [1]; E17.5, 10 mg/kg/d",100%
same,"CA, any severity: N","maternal liver [1]; E17.5, 10 mg/kg/d",5
same,"CA, marked: %","maternal liver [1]; E17.5, 10 mg/kg/d",100%
same,"CA, marked: N","maternal liver [1]; E17.5, 10 mg/kg/d",5
same,"CA, minimal to mild: %","maternal liver [1]; E17.5, 10 mg/kg/d",0%
same,"CA, minimal to mild: N","maternal liver [1]; E17.5, 10 mg/kg/d",0
same,"CA, moderate: %","maternal liver [1]; E17.5, 10 mg/kg/d",0%
same,"CA, moderate: N","maternal liver [1]; E17.5, 10 mg/kg/d",0
same,Focal regions of classic necrosis: %,"maternal liver [1]; E17.5, 10 mg/kg/d",20%
same,Focal regions of classic necrosis: N,"maternal liver [1]; E17.5, 10 mg/kg/d",1
same,Increase in cell death: %,"maternal liver [1]; E17.5, 10 mg/kg/d",100%
same,Increase in cell death: N,"maternal liver [1]; E17.5, 10 mg/kg/d",5
same,Increase in mitotic figures: %,"maternal liver [1]; E17.5, 10 mg/kg/d",0%
same,Increase in mitotic figures: N,"maternal liver [1]; E17.5, 10 mg/kg/d",0
same,"Vacuolation, any severity: %","maternal liver [1]; E17.5, 10 mg/kg/d",100%
same,"Vacuolation, any severity: N","maternal liver [1]; E17.5, 10 mg/kg/d",5
same,"Vacuolation, mild: %","maternal liver [1]; E17.5, 10 mg/kg/d",60%
same,"Vacuolation, mild: N","maternal liver [1]; E17.5, 10 mg/kg/d",3
same,"Vacuolation, minimal: %","maternal liver [1]; E17.5, 10 mg/kg/d",40%
same,"Vacuolation, minimal: N","maternal liver [1]; E17.5, 10 mg/kg/d",2
same,"Vacuolation, moderate: %","maternal liver [1]; E17.5, 10 mg/kg/d",0%
same,"Vacuolation, moderate: N","maternal liver [1]; E17.5, 10 mg/kg/d",0
same,Liver ultrastructure (TEM),maternal liver [2]; 2 mg/kg/d,abnormal ultrastructure
same,Liver ultrastructure (TEM),maternal liver [2]; 10 mg/kg/d,abnormal ultrastructure
